Data reported in ChEMBL document CHEMBL5331129, “Discovery of NAFLD-Improving Agents by Promoting the Degradation of Keap1” (J Med Chem, 2023).
Activity calls are given as the source filed them. No cut-off for these calls is given here.

Assays:
[1] = biological target: Protein cereblon/Kelch-like ECH-associated protein 1 (Mus musculus) (UniProt Q9Z2X8+Q8C7D2); assay: PROTAC activity at CRBN/Keap1 in mouse AML12 cells assessed as degradation of Keap1 protein at 1 uM incubated for 24 hrs by Western blotting analysis; type: cell-based
[2] = biological target: Kelch-like ECH-associated protein 1 (Homo sapiens, UniProt Q14145); assay: Binding affinity to Keap1 (unknown origin) assessed as dissociation constant incubated for 200 sec by sensor chip immobilization based surface plasmon resonance analysis
AML12 [3] = assay: Antioxidant activity against free fatty acid induced oxidative stress in mouse AML12 cells assessed as downregulation of Keap1 protein expression level incubated for 24 hrs by immunoblot analysis; type: functional, cell-based
AML12 [4] = assay: Antioxidant activity against free fatty acid induced oxidative stress in mouse AML12 cells assessed as upregulation of Nrf2 protein expression level incubated for 24 hrs by immunoblot analysis; type: functional, cell-based
AML12 [5] = assay: Antioxidant activity against free fatty acid induced oxidative stress in mouse AML12 cells assessed as upregulation of HO-1 protein expression level incubated for 24 hrs by immunoblot analysis; type: functional, cell-based
AML12 [6] = assay: Antioxidant activity against free fatty acid induced oxidative stress in mouse AML12 cells assessed as upregulation of NQO1 protein expression level incubated for 24 hrs by immunoblot analysis; type: functional, cell-based
AML12 [7] = assay: Antioxidant activity against free fatty acid induced oxidative stress in mouse AML12 cells assessed as increase in GSH level; type: functional, cell-based
AML12 [8] = assay: Antioxidant activity against free fatty acid induced oxidative stress in mouse AML12 cells assessed as increase in SOD level; type: functional, cell-based
AML12 [9] = assay: Antioxidant activity against free fatty acid induced oxidative stress in mouse AML12 cells assessed as decrease in ROS level incubated for 24 hrs; type: functional, cell-based
Mus musculus [10] = assay: Antioxidant activity against MCD diet-induced oxidative stress in C57Bl/6 mouse model of NAFLD assessed as downregulation of liver Keap1 protein expression level at 1 mg/kg,ip administrated for 4 weeks by immunoblot analysis; type: functional, organism-based
Mus musculus [11] = assay: Antioxidant activity against MCD diet-induced oxidative stress in C57Bl/6 mouse model of NAFLD assessed as upregulation of liver Nrf2 protein expression level at 1 mg/kg,ip administrated for 4 weeks by immunoblot analysis; type: functional, organism-based
Mus musculus [12] = assay: Antioxidant activity against MCD diet-induced oxidative stress in C57Bl/6 mouse model of NAFLD assessed as downregulation of liver Keap1 protein expression level at 1 mg/kg,ip administrated for 4 weeks by immunohistochemical staining assay; type: functional, organism-based
Mus musculus [13] = assay: Antioxidant activity against MCD diet-induced oxidative stress in C57Bl/6 mouse model of NAFLD assessed as downregulation of liver Keap1 protein expression level at 1 mg/kg,ip administrated for 4 weeks by immunofluorescence staining analysis; type: functional, organism-based
Mus musculus [14] = assay: Antioxidant activity against MCD diet-induced oxidative stress in C57Bl/6 mouse model of NAFLD assessed as upregulation of liver Nrf2 protein expression level at 1 mg/kg,ip administrated for 4 weeks by immunofluorescence staining analysis; type: functional, organism-based
Mus musculus [15] = assay: Antioxidant activity against MCD diet-induced oxidative stress in C57Bl/6 mouse model of NAFLD assessed as upregulation of liver HO-1 protein expression level at 1 mg/kg,ip administrated for 4 weeks by immunohistochemical staining assay; type: functional, organism-based
Mus musculus [16] = assay: Antioxidant activity against MCD diet-induced oxidative stress in C57Bl/6 mouse model of NAFLD assessed as upregulation of liver NQO1 protein expression level at 1 mg/kg,ip administrated for 4 weeks by immunohistochemical staining assay; type: functional, organism-based
Mus musculus [17] = assay: Antioxidant activity against MCD diet-induced oxidative stress in C57Bl/6 mouse model of NAFLD assessed as increase in CAT level in liver at 1 mg/kg,ip administrated for 4 weeks; type: functional, organism-based
Mus musculus [18] = assay: Antioxidant activity against MCD diet-induced oxidative stress in C57Bl/6 mouse model of NAFLD assessed as increase in SOD level in liver at 1 mg/kg,ip administrated for 4 weeks; type: functional, organism-based
Mus musculus [19] = assay: Antioxidant activity against MCD diet-induced oxidative stress in C57Bl/6 mouse model of NAFLD assessed as increase in GSH level in liver at 1 mg/kg,ip administrated for 4 weeks; type: functional, organism-based
Mus musculus [20] = assay: Antioxidant activity against MCD diet-induced oxidative stress in C57Bl/6 mouse model of NAFLD assessed as decrease in liver ROS level at 1 mg/kg,ip administrated for 4 weeks by immunostaining analysis; type: functional, organism-based
Mus musculus [21] = assay: Antioxidant activity against MCD diet-induced oxidative stress in C57Bl/6 mouse model of NAFLD assessed as reduction of serum TG level at 1 mg/kg,ip administrated for 4 weeks; type: functional, organism-based
Mus musculus [22] = assay: Antioxidant activity against MCD diet-induced oxidative stress in C57Bl/6 mouse model of NAFLD assessed as decrease in histopathological change in liver at 1 mg/kg,ip administrated for 4 weeks by hematoxylin and eosin staining based assay; type: functional, organism-based
[23] = Acute toxicity in zebrafish at < 2.5 uM observed at 120 hrs post fertilization; design: species or system Danio rerio; details: in vivo
[24] = Acute toxicity in zebrafish assessed as pericardial edema at 5 uM observed at 120 hrs post fertilization; design: species or system Danio rerio; details: in vivo
[25] = Acute toxicity in zebrafish assessed as death at 5 uM observed at 120 hrs post fertilization; design: species or system Danio rerio; details: in vivo
[26] = Acute toxicity in zebrafish assessed as death at 10 uM observed at 72 hrs post fertilization; design: species or system Danio rerio; details: in vivo
[27] = Acute toxicity in C57BL/6 mouse assessed as visceral damage at 20 mg/kg,ip qd administrated for 3 consecutive days and measured on day 4 by hematoxylin and eosin staining based assay; type: organism-based; details: in vivo
[28] = Acute toxicity in C57BL/6 mouse assessed as histopathological change in heart at 20 mg/kg,ip qd administrated for 3 consecutive days and measured on day 4 by hematoxylin and eosin staining based assay; type: organism-based; details: in vivo
[29] = Acute toxicity in C57BL/6 mouse assessed as histopathological change in liver at 20 mg/kg,ip qd administrated for 3 consecutive days and measured on day 4 by hematoxylin and eosin staining based assay; type: organism-based; details: in vivo
[30] = Acute toxicity in C57BL/6 mouse assessed as histopathological change in lung at 20 mg/kg,ip qd administrated for 3 consecutive days and measured on day 4 by hematoxylin and eosin staining based assay; type: organism-based; details: in vivo
[31] = Acute toxicity in C57BL/6 mouse assessed as histopathological change in spleen at 20 mg/kg,ip qd administrated for 3 consecutive days and measured on day 4 by hematoxylin and eosin staining based assay; type: organism-based; details: in vivo
[32] = Acute toxicity in C57BL/6 mouse assessed as visceral cellular damage at 20 mg/kg,ip qd administrated for 3 consecutive days and measured on day 4 by hematoxylin and eosin staining based assay; type: organism-based; details: in vivo
[33] = Acute toxicity in C57BL/6 mouse assessed as visceral inflammatory cell infiltration at 20 mg/kg,ip qd administrated for 3 consecutive days and measured on day 4 by hematoxylin and eosin staining based assay; type: organism-based; details: in vivo

Chain of Protein cereblon/Kelch-like ECH-associated protein 1 (Mus musculus) (Q8C7D2 whole entry, looked up): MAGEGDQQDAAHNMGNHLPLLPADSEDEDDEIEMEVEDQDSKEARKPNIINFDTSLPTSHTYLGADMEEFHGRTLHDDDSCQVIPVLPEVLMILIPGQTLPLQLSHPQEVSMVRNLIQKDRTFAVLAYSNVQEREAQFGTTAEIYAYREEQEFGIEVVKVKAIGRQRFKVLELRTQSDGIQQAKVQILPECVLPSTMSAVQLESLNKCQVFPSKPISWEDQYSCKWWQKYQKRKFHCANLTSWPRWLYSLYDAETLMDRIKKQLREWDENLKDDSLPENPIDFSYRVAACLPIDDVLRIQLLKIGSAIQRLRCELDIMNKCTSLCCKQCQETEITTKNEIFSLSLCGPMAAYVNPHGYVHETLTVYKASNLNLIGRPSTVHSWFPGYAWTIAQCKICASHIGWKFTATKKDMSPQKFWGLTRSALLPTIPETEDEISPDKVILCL
Chain of Protein cereblon/Kelch-like ECH-associated protein 1 (Mus musculus) (Q9Z2X8 whole entry, looked up): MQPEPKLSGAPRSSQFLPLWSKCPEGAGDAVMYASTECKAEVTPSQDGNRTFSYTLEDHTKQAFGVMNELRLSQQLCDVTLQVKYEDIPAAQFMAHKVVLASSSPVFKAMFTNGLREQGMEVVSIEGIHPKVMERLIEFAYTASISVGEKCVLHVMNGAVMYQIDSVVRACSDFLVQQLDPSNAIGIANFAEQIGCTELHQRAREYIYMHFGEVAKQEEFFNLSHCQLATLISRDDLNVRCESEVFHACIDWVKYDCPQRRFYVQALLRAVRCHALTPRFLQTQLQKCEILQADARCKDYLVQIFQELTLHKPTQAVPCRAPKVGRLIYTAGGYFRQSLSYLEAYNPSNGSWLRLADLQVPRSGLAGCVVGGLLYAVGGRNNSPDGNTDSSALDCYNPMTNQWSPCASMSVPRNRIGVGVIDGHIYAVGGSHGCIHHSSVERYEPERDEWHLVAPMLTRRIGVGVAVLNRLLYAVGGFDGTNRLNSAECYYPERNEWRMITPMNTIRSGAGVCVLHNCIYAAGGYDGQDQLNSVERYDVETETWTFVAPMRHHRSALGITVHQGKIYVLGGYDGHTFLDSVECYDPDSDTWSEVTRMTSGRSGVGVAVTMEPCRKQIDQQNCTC
Chain of Kelch-like ECH-associated protein 1 (Q14145 whole entry): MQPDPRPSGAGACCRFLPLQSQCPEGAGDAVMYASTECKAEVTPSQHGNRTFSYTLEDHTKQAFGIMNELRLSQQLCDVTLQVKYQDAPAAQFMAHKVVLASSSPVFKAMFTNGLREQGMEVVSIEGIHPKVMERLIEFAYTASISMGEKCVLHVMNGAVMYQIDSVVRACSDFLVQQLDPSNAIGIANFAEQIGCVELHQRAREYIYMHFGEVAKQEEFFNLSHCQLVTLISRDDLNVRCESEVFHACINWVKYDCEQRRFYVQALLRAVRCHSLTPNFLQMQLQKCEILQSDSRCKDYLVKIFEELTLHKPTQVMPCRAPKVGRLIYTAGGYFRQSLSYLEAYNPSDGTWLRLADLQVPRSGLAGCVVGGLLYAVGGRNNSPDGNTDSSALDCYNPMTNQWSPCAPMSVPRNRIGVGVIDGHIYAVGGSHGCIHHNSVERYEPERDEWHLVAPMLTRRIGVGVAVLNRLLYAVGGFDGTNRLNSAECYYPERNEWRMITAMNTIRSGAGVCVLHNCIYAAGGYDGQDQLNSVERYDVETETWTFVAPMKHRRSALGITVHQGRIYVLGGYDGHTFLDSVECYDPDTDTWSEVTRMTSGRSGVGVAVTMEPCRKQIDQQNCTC

**Q.** With Nc1cccc2c1C(=O)N(C1CCC(=O)NC1=O)C2=O (stereo not given) as the molecule, how does the Activity [1] read?
**A.** inactive

**Q.** Which Activity [1] does the source give for CN1C(=O)CCC(N2C(=O)c3cccc(NCCCCCNC(=O)[C@]45CCC(C)(C)C[C@H]4[C@H]4C(=O)C=C6C7(C)C=C(C#N)C(=O)C(C)(C)[C@@H]7CC[C@@]6(C)[C@]4(C)CC5)c3C2=O)C1=O (single isomer, unassigned) here?
**A.** inactive

**Q.** With CC1(C)CC[C@]2(C(=O)O)CC[C@]3(C)[C@H](C(=O)C=C4[C@@]5(C)C=C(C#N)C(=O)C(C)(C)[C@@H]5CC[C@]43C)[C@@H]2C1 [BARDOXOLONE] as the molecule, how does the Activity [1] read?
**A.** inactive

**Q.** And the Kd [2]?
**A.** 48.7 µM

**Q.** What about the Activity (AML12 [3]) of the same molecule?
**A.** inactive

**Q.** And the Activity (AML12 [4])?
**A.** inactive

**Q.** And the Activity (AML12 [5])?
**A.** inactive

**Q.** And the Activity (AML12 [6])?
**A.** inactive

**Q.** What about the Activity (AML12 [7]) of the same molecule?
**A.** inactive

**Q.** And the Activity (AML12 [8])?
**A.** Active

**Q.** What about the Activity (AML12 [9]) of the same molecule?
**A.** Active

**Q.** And the Activity (Mus musculus [10])?
**A.** inactive

**Q.** And the Activity (Mus musculus [11])?
**A.** inactive

**Q.** What about the Activity (Mus musculus [12]) of the same molecule?
**A.** inactive

**Q.** And the Activity (Mus musculus [13])?
**A.** inactive

**Q.** And the Activity (Mus musculus [14])?
**A.** inactive

**Q.** And the Activity (Mus musculus [15])?
**A.** inactive

**Q.** And the Activity (Mus musculus [16])?
**A.** inactive

**Q.** What about the Activity (Mus musculus [17]) of the same molecule?
**A.** Active

**Q.** And the Activity (Mus musculus [18])?
**A.** Active

**Q.** And the Activity (Mus musculus [19])?
**A.** Active

**Q.** And the Activity (Mus musculus [20])?
**A.** Active

**Q.** And the Activity (Mus musculus [21])?
**A.** Active

**Q.** And the Activity (Mus musculus [22])?
**A.** Active

**Q.** And the Activity [23]?
**A.** Non-Toxic

**Q.** What about the Activity [24] of the same molecule?
**A.** Toxic

**Q.** And the Activity [25]?
**A.** Toxic

**Q.** And the Activity [26]?
**A.** Toxic

**Q.** What about the Activity [27] of the same molecule?
**A.** Non-Toxic

**Q.** What about the Activity [28] of the same molecule?
**A.** Toxic

**Q.** And the Activity [29]?
**A.** Toxic

**Q.** What about the Activity [30] of the same molecule?
**A.** Toxic

**Q.** And the Activity [31]?
**A.** Toxic

**Q.** And the Activity [32]?
**A.** Toxic

**Q.** What about the Activity [33] of the same molecule?
**A.** Toxic
